According to patent publication US11939294B1 (priority 2023, dated 2024):

How the values were obtained:
[1] = tested on: Mycobacterium tuberculosis H37Rv (susceptible; ATCC: 25177); experiment: Resazurin Microplate Assay (REMA), anti-tubercular activity, susceptible strain; format: cell-based; settings: 192 h, read-out: MIC (μg/mL) Susceptible (H37Rv), H37Rv, ATCC: 25177, 8 days incubation at 37° C.

Structure (SMILES) | melting point | MIC [1]
Cc1cc(C)c[n+](CC(=O)c2ccc(Br)cc2)c1.[Br-] | 210 °C | –
COc1ccc(C(=O)C[n+]2cc(C)cc(C)c2)cc1.[Br-] | 108 °C | –
Cc1cc(C)c[n+](CC(=O)c2ccc(F)cc2)c1.[Br-] [Compound 3d, 1-(2-(4-Fluorophenyl)-2-oxoethyl)-3,5-dimethylpyridin-1-ium bromide] | 123 °C | ~8 µg/mL
Cc1cc(C)c[n+](CC(=O)c2ccc(Cl)cc2)c1.[Br-] | 125 °C | –
